Test results reported in PubChem BioAssay (NCI).
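Exposure lasted 48 hours, with cells grown in 96-well plates and compounds tested at five concentrations. The concentration for 50% growth inhibition is given as GI50. At the TGI there is no net growth.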

How the values were obtained:
Test in all cases: DTP human tumour cell line panel, 48 h
UACC-62 melanoma = tested on: UACC-62 melanoma
UACC-257 melanoma = tested on: UACC-257 melanoma
MALME-3M melanoma = tested on: MALME-3M melanoma
SW-620 colon = tested on: SW-620 colon
HS 578T breast = tested on: HS 578T breast
SK-OV-3 ovarian = tested on: SK-OV-3 ovarian
COLO 205 colon = tested on: COLO 205 colon
SF-539 CNS = tested on: SF-539 CNS
SK-MEL-5 melanoma = tested on: SK-MEL-5 melanoma
RPMI-8226 leukemia = tested on: RPMI-8226 leukemia

CC1(C)CCC2(C(=O)O)C(O)CC3(C)C(=CCC4C5(C)CCC(OC6OCC(O)C(O)C6OC6OCC(O)C(O)C6OC6OCC(O)C(OC7OC(CO)C(O)C(O)C7O)C6O)C(C)(C)C5CCC43C)C2C1 (stereo not drawn)
TGI (UACC-62 melanoma): > 100 µM | TGI (UACC-257 melanoma): > 100 µM | TGI (MALME-3M melanoma): 78.4 µM | TGI (SW-620 colon): > 100 µM | TGI (HS 578T breast): > 100 µM | TGI (SK-OV-3 ovarian): 40.2 µM | TGI (COLO 205 colon): > 100 µM | TGI (SF-539 CNS): > 100 µM | TGI (SK-MEL-5 melanoma): > 100 µM

O=C1C=C(Nc2cc(Cl)ccc2Cl)c2ccccc2C1=O
TGI (UACC-62 melanoma): 31.4 µM | TGI (RPMI-8226 leukemia): 68 µM | TGI (UACC-257 melanoma): 41.8 µM | TGI (MALME-3M melanoma): 39.4 µM | TGI (SW-620 colon): > 100 µM | TGI (SK-OV-3 ovarian): > 100 µM | TGI (COLO 205 colon): > 100 µM | TGI (SF-539 CNS): > 100 µM

Nc1nc2c(ncn2C2OC(CO)C(O)C2O)c(=O)o1 (stereo not drawn)
TGI (UACC-62 melanoma): > 100 µM | TGI (RPMI-8226 leukemia): > 100 µM | TGI (UACC-257 melanoma): > 100 µM | TGI (MALME-3M melanoma): > 100 µM | TGI (SW-620 colon): > 93.6 µM | TGI (SK-OV-3 ovarian): > 100 µM | TGI (COLO 205 colon): > 100 µM | TGI (SF-539 CNS): > 100 µM | TGI (SK-MEL-5 melanoma): > 100 µM

O=C(Nc1ccc(Nc2ccc(NC(=O)c3ccccc3)c3c2C(=O)c2ccccc2C3=O)c2c1C(=O)c1ccccc1C2=O)c1ccccc1
TGI (UACC-62 melanoma): > 100 µM | TGI (RPMI-8226 leukemia): > 100 µM | TGI (UACC-257 melanoma): > 100 µM | TGI (MALME-3M melanoma): > 100 µM | TGI (SW-620 colon): > 100 µM | TGI (SK-OV-3 ovarian): > 100 µM | TGI (COLO 205 colon): > 100 µM | TGI (SF-539 CNS): > 100 µM | TGI (SK-MEL-5 melanoma): > 100 µM

N#Cc1c(-c2ccccc2)nc(SCC(O)CN2CCOCC2)nc1N1CCOCC1 (stereo not drawn)
GI50 (UACC-62 melanoma): 3.55 µM | TGI (UACC-62 melanoma): > 100 µM | GI50 (RPMI-8226 leukemia): 7.78 µM | TGI (RPMI-8226 leukemia): 41.6 µM | GI50 (UACC-257 melanoma): 2.88 µM | TGI (UACC-257 melanoma): 45.7 µM | GI50 (MALME-3M melanoma): 4.73 µM | TGI (MALME-3M melanoma): > 100 µM | GI50 (SW-620 colon): 51.9 µM | TGI (SW-620 colon): > 100 µM | GI50 (HS 578T breast): 6.22 µM | TGI (HS 578T breast): 63.2 µM | GI50 (SK-OV-3 ovarian): 1.87 µM | TGI (SK-OV-3 ovarian): 12 µM | GI50 (COLO 205 colon): 29.6 µM | TGI (COLO 205 colon): 84.6 µM | GI50 (SK-MEL-5 melanoma): 2.99 µM | TGI (SK-MEL-5 melanoma): 47.9 µM

Oc1ccc(I)c2cccnc12
TGI (RPMI-8226 leukemia): 62.9 µM | TGI (UACC-257 melanoma): 73.8 µM | TGI (MALME-3M melanoma): 61.8 µM | TGI (SW-620 colon): > 100 µM | TGI (SK-OV-3 ovarian): 49.5 µM | TGI (COLO 205 colon): 79 µM | TGI (SF-539 CNS): > 100 µM

[pH]1p2[pH]p3p1p3[pH]2.c1cc[c]([Ge]([c]2ccccc2)[c]2ccccc2)cc1.c1cc[c]([Ge]([c]2ccccc2)[c]2ccccc2)cc1.c1cc[c]([Ge]([c]2ccccc2)[c]2ccccc2)cc1
GI50 (UACC-62 melanoma): 14.3 µM | TGI (UACC-62 melanoma): 31 µM | GI50 (RPMI-8226 leukemia): 17.6 µM | TGI (RPMI-8226 leukemia): 75.5 µM | GI50 (UACC-257 melanoma): 15.2 µM | TGI (UACC-257 melanoma): 31.7 µM | GI50 (MALME-3M melanoma): 14.3 µM | TGI (MALME-3M melanoma): 28.1 µM | GI50 (SW-620 colon): 16.3 µM | TGI (SW-620 colon): 29.9 µM | GI50 (SK-OV-3 ovarian): 15.4 µM | TGI (SK-OV-3 ovarian): 33.8 µM | GI50 (COLO 205 colon): 12.1 µM | TGI (COLO 205 colon): 26.2 µM | GI50 (SF-539 CNS): 13.9 µM | TGI (SF-539 CNS): 31.8 µM | GI50 (SK-MEL-5 melanoma): 34.1 µM | TGI (SK-MEL-5 melanoma): 53.1 µM

O=C(CCl)N1CCN(c2ccccn2)CC1
TGI (RPMI-8226 leukemia): > 100 µM | TGI (UACC-257 melanoma): 65.5 µM | TGI (MALME-3M melanoma): 31.8 µM | TGI (SW-620 colon): 51.6 µM | TGI (HS 578T breast): > 100 µM | TGI (SK-OV-3 ovarian): > 100 µM | TGI (COLO 205 colon): 47.4 µM | TGI (SK-MEL-5 melanoma): 35 µM

COC12OCCN(C)C1=CC(=O)C1N=NCC12 (stereo not drawn)
TGI (UACC-62 melanoma): > 100 µM | TGI (RPMI-8226 leukemia): > 100 µM | TGI (UACC-257 melanoma): > 100 µM | TGI (SW-620 colon): > 100 µM | TGI (SK-OV-3 ovarian): > 100 µM | TGI (COLO 205 colon): > 100 µM | TGI (SF-539 CNS): > 100 µM | TGI (SK-MEL-5 melanoma): > 100 µM

c1ccc(-c2sc(-c3ccccc3)c3c2C(c2ccccc2)c2c(-c4ccccc4)sc(-c4ccccc4)c2C3c2ccccc2)cc1 (stereo not drawn)
TGI (UACC-62 melanoma): > 100 µM | TGI (RPMI-8226 leukemia): > 100 µM | TGI (UACC-257 melanoma): > 100 µM | TGI (MALME-3M melanoma): > 100 µM | TGI (SW-620 colon): > 100 µM | TGI (SK-OV-3 ovarian): > 100 µM | TGI (COLO 205 colon): > 100 µM | TGI (SF-539 CNS): > 100 µM | TGI (SK-MEL-5 melanoma): > 100 µM
